Measurements: patent US20120122727A1, “IN VITRO METHOD FOR PREDICTING WHETHER A COMPOUND IS GENOTOXIC IN VIVO” (priority 2009, published 2012)

System: primary mouse hepatocytes
Experiment: Gene expression (Affymetrix Mouse Genome 430 2.0) in primary mouse hepatocytes, true vs false GTX, 24 h and 48 h
Settings: log2, corrected for vehicle control

O=c1c(O)c(-c2ccc(O)c(O)c2)oc2cc(O)cc(O)c12 [Q, Quercetin]
Gene expression data AF000969 (Cadps2) (24 h average): −0.5753
Gene expression data AF022072 (Grb10) (24 h average): 0.3385
Gene expression data AF065917 (Lif) (24 h average): −0.1024
Gene expression data AF204959 (Cyp3a25 /// LOC622249) (24 h average): −1.232
Gene expression data AF297615 (Ggta1) (24 h average): 0.8047
Gene expression data AI594683 (Dmn) (24 h average): −0.2712
Gene expression data AI596632 (Ptprg /// LOC632664) (24 h average): −0.456
Gene expression data AI987929 (Ndrg1) (24 h average): 1.663
Gene expression data AK004419 (Fbxl17) (24 h average): −0.01537
Gene expression data AK005731 (1700007K13Rik) (24 h average): 0.6919
Gene expression data AK007766 (1810044A24Rik) (24 h average): −0.04463
Gene expression data AK007854 (1810053B23Rik) (24 h average): −0.9336
Gene expression data AK009736 (Gpr137b /// LOC664862 /// LOC673335) (24 h average): 1.171
Gene expression data AK010447 (Smyd3) (24 h average): 0.0701
Gene expression data AK014608 (4632434l11Rik) (24 h average): 0.03273
Gene expression data AK019979 (2610528E23Rik) (24 h average): 0.2502
Gene expression data AV095209 (Mthfd1l) (24 h average): 0.8331
Gene expression data AV141095 (1110033M05Rik) (24 h average): 0.2855
Gene expression data AV173571 (1700106N22Rik) (24 h average): −0.2484
Gene expression data AV219418 (Ldhb) (24 h average): −0.1808
Gene expression data AV223474 (Zdhhc14) (24 h average): −0.2496
Gene expression data AV298304 (Homez) (24 h average): 0.2496
Gene expression data AV327248 (Zfp365 /// LOC674611) (24 h average): 0.3116
Gene expression data AV377066 (9130221J18Rik) (24 h average): −0.4922
Gene expression data AW240761 (Tbc1d5) (24 h average): −0.157
Gene expression data AW543460 (Pard3) (24 h average): 0.2437
Gene expression data AW543723 (24 h average): 0.4193
Gene expression data AW986246 (Maoa) (24 h average): 1.388
Gene expression data BB027848 (4732466D17Rik) (24 h average): −1.304
Gene expression data BB043558 (9230114K14Rik) (24 h average): 0.3431
Gene expression data BB275142 (AW456874) (24 h average): −0.5004
Gene expression data BB308836 (Ppm1l) (24 h average): 0.1666
Gene expression data BB318221 (Zdhhc14) (24 h average): −0.1479
Gene expression data BB463610 (4632434l11Rik) (24 h average): −0.1026
Gene expression data BB526605 (Mipol1) (24 h average): 0.09617
Gene expression data BB770528 (Rai2) (24 h average): −0.3109
Gene expression data BB821363 (Scfd2) (24 h average): −0.2338
Gene expression data BC004827 (Psat1) (24 h average): 0.9258
Gene expression data BC008626 (Icam1) (24 h average): −0.3725
Gene expression data BC010462 (BC010462) (24 h average): −0.5852
Gene expression data BC012247 (Dcxr) (24 h average): −0.2845
Gene expression data BC012260 (Psmf1) (24 h average): −0.1689
Gene expression data BC015270 (Hist2h3c2) (24 h average): −0.3924
Gene expression data BC016073 (Cdkal1) (24 h average): 0.1993
Gene expression data BC016265 (Ube2e2) (24 h average): 0.1622
Gene expression data BC019882 (Acaa1b) (24 h average): 0.7124
Gene expression data BC025501 (Aaas) (24 h average): 0.4589
Gene expression data BC025837 (Sbk1) (24 h average): −0.3383
Gene expression data BC025915 (Cova1) (24 h average): 0.3176
Gene expression data BC026422 (Tgm1) (24 h average): 0.28
Gene expression data BF719766 (Thyn1) (24 h average): 0.1596
Gene expression data BG065754 (Ccng1) (24 h average): 0.4829
Gene expression data BG066903 (Kif16b) (24 h average): 0.2506
Gene expression data BG069873 (Gnb1l) (24 h average): 0.007867
Gene expression data BG070887 (Gtdc1) (24 h average): −0.2209
Gene expression data BG076151 (Ppm1d) (24 h average): −0.1367
Gene expression data BG261907 (Large) (24 h average): 0.3964
Gene expression data BI651416 (Cdc42bpg) (24 h average): 0.2653
Gene expression data BI660702 (Ell3) (24 h average): −0.05897
Gene expression data BM198879 (Ercc5) (24 h average): 0.1402
Gene expression data BM230508 (A030007D23Rik) (24 h average): 0.3449
Gene expression data NM_007987 (Fas) (24 h average): 0.1744
Gene expression data NM_008522 (Ltf) (24 h average): −0.09593
Gene expression data NM_008576 (Abcc1) (24 h average): 1.2925
Gene expression data NM_011176 (St14) (24 h average): 0.5914
Gene expression data NM_011316 (Saa4) (24 h average): −0.1314
Gene expression data NM_012006 (Acot1) (24 h average): 1.0762
Gene expression data NM_013866 (Zfp385) (24 h average): 0.06543
Gene expression data NM_018770 (Igsf4a) (24 h average): 0.4689
Gene expression data NM_021451 (Pmaip1) (24 h average): −0.611
Gene expression data NM_025770 (Atg10) (24 h average): 0.2663
Gene expression data NM_028803 (Gbe1) (24 h average): −0.2509
Gene expression data NM_030697 (Ankrd47) (24 h average): 1.3142
Gene expression data NM_053168 (Trim11) (24 h average): −0.02257
Gene expression data NM_134188 (Acot2) (24 h average): 0.1275
Gene expression data Y15910 (Diap2) (24 h average): −0.31
Gene expression AA561726 average (48 h): 0.3473
Gene expression AF000969 average (48 h): 0.6762
Gene expression AF022072 average (48 h): 0.7799
Gene expression AF033112 average (48 h): 0.02593
Gene expression AF055573 average (48 h): 0.0039
Gene expression AF069954 average (48 h): −0.168
Gene expression AF297615 average (48 h): −0.02943
Gene expression AF335325 average (48 h): −0.3547
Gene expression AI594683 average (48 h): −0.1952
Gene expression AI747296 average (48 h): −0.1572
Gene expression AK005731 average (48 h): −0.8953
Gene expression AK007854 average (48 h): 1.0645
Gene expression AK010447 average (48 h): −0.1277
Gene expression AK010738 average (48 h): 0.03457
Gene expression AK014608 average (48 h): −0.3181
Gene expression AK017734 average (48 h): −0.2231
Gene expression AK018383 average (48 h): −0.06343
Gene expression AK019979 average (48 h): −0.6456
Gene expression AV095209 average (48 h): 0.0573
Gene expression AV141095 average (48 h): −0.03573
Gene expression AV173869 average (48 h): −0.3593
Gene expression AV216768 average (48 h): 0.4269
Gene expression AV219418 average (48 h): 0.7223
Gene expression AV221299 average (48 h): 0.3941
Gene expression AV246296 average (48 h): −0.449
Gene expression AV251625 average (48 h): −0.2405
Gene expression AV254764 average (48 h): −0.09113
Gene expression AV327248 average (48 h): −0.1842
Gene expression BB009155 average (48 h): −0.6448
Gene expression BB027848 average (48 h): −0.5634
Gene expression BB043558 average (48 h): 0.03817
Gene expression BB046347 average (48 h): 0.3747
Gene expression BB140436 average (48 h): 0.455
Gene expression BB204486 average (48 h): 0.3211
Gene expression BB223872 average (48 h): −0.2409
Gene expression BB246912 average (48 h): 0.03943
Gene expression BB275142 average (48 h): −0.5307
Gene expression BB458460 average (48 h): −0.2505
Gene expression BB463610 average (48 h): −0.254
Gene expression BB730977 average (48 h): 0.127
Gene expression BB743970 average (48 h): −0.1543
Gene expression BB770528 average (48 h): −0.5238
Gene expression BB781615 average (48 h): −0.3025
Gene expression BC003284 average (48 h): −0.3991
Gene expression BC004827 average (48 h): 0.3832
Gene expression BC005552 average (48 h): 0.365
Gene expression BC006713 average (48 h): 0.1419
Gene expression BC010318 average (48 h): 0.2274
Gene expression BC012247 average (48 h): 0.1853
Gene expression BC012955 average (48 h): 0.25
Gene expression BC013893 average (48 h): −0.5246
Gene expression BC017615 average (48 h): −0.2786
Gene expression BC019379 average (48 h): −0.03313
Gene expression BC019882 average (48 h): −0.02177
Gene expression BC021352 average (48 h): −1.143
Gene expression BC022148 average (48 h): 0.2323
Gene expression BC025169 average (48 h): 0.176
Gene expression BC026131 average (48 h): 0.3886
Gene expression BC027026 average (48 h): 0.3636
Gene expression BC027121 average (48 h): 0.003767
Gene expression BC027185 average (48 h): −0.4317
Gene expression BE956581 average (48 h): 0.1063
Gene expression BF719766 average (48 h): 0.1683
Gene expression BG065754 average (48 h): −0.2692
Gene expression BG066491 average (48 h): −0.6278
Gene expression BG076151 average (48 h): −0.7006
Gene expression BG076333 average (48 h): 0.2569
Gene expression BG797099 average (48 h): −0.3185
Gene expression BG967046 average (48 h): −0.2263
Gene expression BI651416 average (48 h): −0.4982
Gene expression BI966443 average (48 h): 0.1621
Gene expression BM198879 average (48 h): −0.1382
Gene expression BM200015 average (48 h): −0.2469
Gene expression BM230508 average (48 h): −0.6707
Gene expression BM936480 average (48 h): 0.1682
Gene expression BQ174991 average (48 h): 0.5432
Gene expression L21027 average (48 h): 0.4391
Gene expression NM_007556 average (48 h): 0.4673
Gene expression NM_007980 average (48 h): 1.051
Gene expression NM_007987 average (48 h): −0.07343
Gene expression NM_008522 average (48 h): −0.03917
Gene expression NM_008935 average (48 h): 0.5881
Gene expression NM_009897 average (48 h): 0.2468
Gene expression NM_011075 average (48 h): −0.8714
Gene expression NM_011176 average (48 h): −0.3579
Gene expression NM_011316 average (48 h): −0.2485
Gene expression NM_012006 average (48 h): 0.7373
Gene expression NM_013642 average (48 h): 0.7153
Gene expression NM_013738 average (48 h): −0.4434
Gene expression NM_013929 average (48 h): 0.09257
Gene expression NM_018881 average (48 h): 0.2667
Gene expression NM_019738 average (48 h): −0.7691
Gene expression NM_030697 average (48 h): 0.08597
Gene expression NM_053122 average (48 h): −0.1158
Gene expression NM_134147 average (48 h): −0.2048
Gene expression NM_134188 average (48 h): 0.5773
Gene expression X62701 average (48 h): 0.8426
